Experimental data from patent US10421718B2, “EBNA1 inhibitors and their method of use” (priority 2013, dated 2019).
Structures can show the parent of a compound that is named as a salt.

Target: T1, His-EBNA1 (DNA binding domain of EBNA1, amino acids 459-607) (Epstein-Barr virus, UniProt P03211)
T1 construct: made in house; host or cells: E. coli
Experiment: Inhibition of 5′-biotin-oPL4624 binding to His-EBNA1 using Alpha Screen technology
Settings: Alpha Screen Activity (IC50, inhibition of 5′-biotin-oPL4624 binding to His-EBNA1), 15 nM His-EBNA1, 0.2 nM bt-oPL4624, 2 hr room temperature
Procedure: Inhibition of 5′-biotin-oPL4624 binding to His-EBNA1 using Alpha Screen technology: Assays were performed using the DNA binding domain of EBNA1 (amino acids 459-607), which was His-tagged (His-EBNA1) and the self-complementary biotinylated (bt) oligonucleotide with the sequence 5′-bt-[…]-ATGCTACCC-3′ (bt-oPL4624). The protein was expressed in E. coli and purified according to Barwell, et al. (Barwell J A, Bochkarev A, Pfuetzner R A, Tong H, Yang D S, Frappier L, Edwards A M. (1995) Overexpression, purification, and crystallization of the DNA binding and dimerization domains of the Epstein-Barr virus nuclear antigen 1. J Biol Chem. 270: 20556-9.). The bt-oPL4624 oligonucleotide was purchased from Integrated DNA Technologies, Inc (IDT). AlphaScreen donor, acceptor beads and white, opaque 384-well assay plates were purchased from PerkinElmer, Inc.
Assays contained 15 nM His-EBNA1, 0.2 nM bt-oPL4624, 5 μg/mL AlphaScreen streptavidin donor beads and nickel chelate acceptor beads, and a series of concentrations of test compound ranging from 3.2 nM to 100 μM in a total volume of 40 μL assay buffer (25 mM Tris, pH 7.2, 160 mM NaCl, 1 mM MgCl2). His-EBNA1 (30 nM) and bt-oPL4624 (0.4 nM) were preincubated with 10 μg/mL nickel chelate AlphaScreen acceptor bead, or 10 μg/mL streptavidin AlphaScreen donor bead, respectively, for 30 minutes at room temperature in assay buffer. Twenty microliters of His-EBNA1/acceptor bead mix and bt-oPL4624/donor bead mix were transferred to assay plates containing […] of 1:3 serial dilutions of test compounds previously prepared in DMSO at concentrations ranging from 0.32 μM to 10 mM. Nonspecific binding was determined with 5 μg/mL AlphaScreen acceptor bead in the absence of His-EBNA1. After 2 hr incubation at room temperature, the AlphaScreen signal was measured on the Envision plate reader (PerkinElmer, Inc.) at 680 nm excitation and 570 nm emission. Inhibition values at each concentration of test compound were determined by setting 100% equal to raw data values in the absence of EBNA1 and 0% equal to the raw data values in the presence of EBNA1. Nonlinear regression fits of the inhibition values to a one-site dose-response equation were performed using GraphPad Prism.

T1 sequence (P03211 459-607): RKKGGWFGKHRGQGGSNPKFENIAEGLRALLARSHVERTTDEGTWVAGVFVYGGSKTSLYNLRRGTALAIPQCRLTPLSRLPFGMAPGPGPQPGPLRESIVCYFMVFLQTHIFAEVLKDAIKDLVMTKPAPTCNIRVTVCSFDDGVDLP

SMILES | IC50 [µM]
O=C(O)c1cccc(C#CC2CC2)c1-n1cccc1 [Entry 62, 3-(2-cyclopropylethynyl)-2-(1H-pyrrol-1-yl)benzoic acid] | < 1
CC(C)(O)C#Cc1cccc(C(=O)O)c1-n1cccc1 [Entry 63, 3-(3-hydroxy-3-methylbut-1-yn-1-yl)-2-(1H-pyrrol-1-yl)benzoic acid] | < 1
CN(C)CC#Cc1cccc(C(=O)O)c1-n1cccc1 [Entry 64, 3-[3-(dimethylamino)prop-1-yn-1-yl]-2-(1H-pyrrol-1-yl)benzoic acid] | 100 to 1000
O=C(O)c1cccc(C#CCCc2ccccc2)c1-n1cccc1 [Entry 65, 3-(4-phenylbut-1-yn-1-yl)-2-(1H-pyrrol-1-yl)benzoic acid] | < 1
O=C(O)c1cccc(C#CCCCO)c1-n1cccc1 [Entry 66, 3-(5-hydroxypent-1-yn-1-yl)-2-(1H-pyrrol-1-yl)benzoic acid] | < 1
COc1ccc(C#Cc2cccc(C(=O)O)c2-n2cccc2)cc1 [Entry 67, 3-[2-(4-methoxyphenyl)ethynyl]-2-(1H-pyrrol-1-yl)benzoic acid] | 1 to 10
O=C(O)c1cccc(C#Cc2ccncc2)c1-n1cccc1 [Entry 68, 3-[2-(pyridin-4-yl)ethynyl]-2-(1H-pyrrol-1-yl)benzoic acid] | < 1
O=C(O)c1cccc(C#Cc2cccnc2)c1-n1cccc1 [Entry 69, 3-[2-(pyridin-3-yl)ethynyl]-2-(1H-pyrrol-1-yl)benzoic acid] | 10 to 100
COc1cccc(C#Cc2cccc(C(=O)O)c2-n2cccc2)c1 [Entry 70, 3-[2-(3-methoxyphenyl)ethynyl]-2-(1H-pyrrol-1-yl)benzoic acid] | 1 to 10
O=C(O)c1cccc(C#Cc2ccc(F)cc2)c1-n1cccc1 [Entry 71, 3-[2-(4-fluorophenyl)ethynyl]-2-(1H-pyrrol-1-yl)benzoic acid] | 1 to 10
O=C(O)c1cccc(C#Cc2ccccc2)c1-n1cccc1 [Entry 72, 3-(2-phenylethynyl)-2-(1H-pyrrol-1-yl)benzoic acid] | < 1
CN(CC#Cc1cccc(C(=O)O)c1-n1cccc1)Cc1ccccc1 [Entry 73, 3-{3-[benzyl(methyl)amino]prop-1-yn-1-yl}-2-(1H-pyrrol-1-yl)benzoic acid] | < 1
O=C(O)c1cccc(C#CCn2ccnc2)c1-n1cccc1 [Entry 74, 3-[3-(1H-imidazol-1-yl)prop-1-yn-1-yl]-2-(1H-pyrrol-1-yl)benzoic acid] | < 1
O=C(O)c1cccc(C#Cc2cscn2)c1 [Entry 75, 3-[2-(1,3-thiazol-4-yl)ethynyl]benzoic acid] | 10 to 100
O=C(O)c1cccc(C#Cc2c[nH]c3ncccc23)c1 [Entry 76, 3-(2-{1H-pyrrolo[2,3-b]pyridin-3-yl}ethynyl)benzoic acid] | 10 to 100
O=C(O)c1cccc(C#Cc2ccc3[nH]ccc3c2)c1 [Entry 77, 3-[2-(1H-indol-5-yl)ethynyl]benzoic acid] | < 1
Nc1c(C#Cc2c[nH]c3ncccc23)cccc1C(=O)O [Entry 78] | < 1
Nc1c(C#Cc2cccc3[nH]ccc23)cccc1C(=O)O [Entry 79, 2-amino-3-[2-(1H-indol-4-yl)ethynyl]benzoic acid] | < 1
Nc1c(C#Cc2ccc3cc[nH]c3c2)cccc1C(=O)O [Entry 80, 2-amino-3-[2-(1H-indol-6-yl)ethynyl]benzoic acid] | < 1
Nc1c(C#Cc2ccc3[nH]ccc3c2)cccc1C(=O)O [Entry 81] | < 1
Nc1c(C#Cc2cccc(CO)c2)cccc1C(=O)O [Entry 82, 2-amino-3-{2-[3-(hydroxymethyl)phenyl]ethynyl}benzoic acid] | 1 to 10
Nc1c(C#Cc2cccc(O)c2)cccc1C(=O)O [Entry 83] | 1 to 10
Nc1c(C#Cc2ccccc2)cccc1C(=O)O [Entry 84] | 10 to 100
O=C(O)c1cccc(C#Cc2ccccc2)c1F [Entry 85, 2-fluoro-3-(2-phenylethynyl)benzoic acid] | 1 to 10

SMILES | IC50 [µM]
O=C(O)c1cccc(C#Cc2c[nH]c3ncccc23)c1F [Entry 86, 2-fluoro-3-(2-{1H-pyrrolo[2,3-b]pyridin-3-yl}ethynyl)benzoic acid] | 10 to 100
O=C(O)c1cccc(C#Cc2cnc3cnccn23)c1F [Entry 87, 2-fluoro-3-(2-{imidazo[1,2-a]pyrazin-3-yl}ethynyl)benzoic acid] | < 1
O=C(O)c1cccc(C#Cc2ccccc2CO)c1F [Entry 88, 2-fluoro-3-{2-[2-(hydroxymethyl)phenyl]ethynyl}benzoic acid] | 1 to 10
O=C(O)c1cccc(C#Cc2cscn2)c1F [Entry 89] | 1 to 10
O=C(O)c1cccc(C#Cc2ccccn2)c1 [Entry 90, 3-[2-(pyridin-2-yl)ethynyl]benzoic acid] | 100 to 1000
O=C(O)c1cccc(C#Cc2cccnc2)c1 [Entry 91, 3-[2-(pyridin-3-yl)ethynyl]benzoic acid] | 1 to 10
O=C(O)c1cccc(C#Cc2ccccc2)c1 [Entry 92, 3-(2-phenylethynyl)benzoic acid] | 10 to 100
O=C(O)c1cccc(C#Cc2ccncc2)c1 [Entry 93, 3-[2-(pyridin-4-yl)ethynyl]benzoic acid] | 1 to 10
COc1ccc(C#Cc2cccc(C(=O)O)c2)cc1 [Entry 94, 3-[2-(4-methoxyphenyl)ethynyl]benzoic acid] | 100 to 1000
CN(C)Cc1ccc(-c2c(C#Cc3ccccc3)cccc2C(=O)O)cc1 [Entry 95, 2-{4-[(dimethylamino)methyl]phenyl}-3-(2-phenylethynyl)benzoic acid trifluoroacetic acid salt] | 1 to 10
O=C(O)c1cccc(C#Cc2ccccc2)c1C1=CCNCC1 [Entry 96, 3-(2-phenylethynyl)-2-(1,2,3,6-tetrahydropyridin-4-yl)benzoic acid trifluoroacetic acid salt] | 1 to 10
O=C(O)c1cccc(C#Cc2ccccc2)c1-c1ccncc1 [Entry 97, 3-(2-phenylethynyl)-2-(pyridin-4-yl)benzoic acid trifluoroacetic acid salt] | 10 to 100
CS(=O)(=O)c1ccc(-c2c(C#Cc3ccccc3)cccc2C(=O)O)cc1 [Entry 98, 2-(4-methanesulfonylphenyl)-3-(2-phenylethynyl)benzoic acid] | 10 to 100
O=C(O)c1cccc(C#Cc2ccccc2)c1-c1cn[nH]c1 [Entry 99, 3-(2-phenylethynyl)-2-(1H-pyrazol-4-yl)benzoic acid] | 1 to 10
O=C(O)c1cccc(C#Cc2ccccc2)c1-c1cncnc1 [Entry 100, 3-(2-phenylethynyl)-2-(pyrimidin-5-yl)benzoic acid] | 100 to 1000
Cn1cc(-c2c(C#Cc3ccccc3)cccc2C(=O)O)cn1 [Entry 101, 2-(1-methyl-1H-pyrazol-4-yl)-3-(2-phenylethynyl)benzoic acid] | 1 to 10
O=C(O)c1cccc(C#Cc2ccccc2)c1N1CCCC1c1ccccc1 (stereo not drawn) [Entry 102, 3-(2-phenylethynyl)-2-(2-phenylpyrrolidin-1-yl)benzoic acid] | 1 to 10
CN(C)C1CCN(c2c(C#Cc3ccccc3)cccc2C(=O)O)C1 (stereo not drawn) [Entry 103, 2-(3-(dimethylamino)pyrrolidin-1-yl)-3-(phenylethynyl)benzoic acid] | 10 to 100
O=C(O)c1cccc(C#Cc2ccccc2)c1N1CCC(C(=O)O)C1 (stereo not drawn) [Entry 104, 1-(2-carboxy-6-(phenylethynyl)phenyl)pyrrolidine-3-carboxylic acid] | 10 to 100
O=C(O)c1cccc(C#Cc2ccccc2)c1N1CC[C@H](O)C1 [Entry 105, (S)-2-(3-hydroxypyrrolidin-1-yl)-3-(phenylethynyl)benzoic acid] | 100 to 1000
O=C(O)c1cccc(C#Cc2ccccc2)c1N1CCCC1 [Entry 106, 3-(phenylethynyl)-2-(pyrrolidin-1-yl)benzoic acid] | 10 to 100
O=C(O)c1cccc(C#Cc2ccccc2)c1N1CCNCC1 [Entry 107, 3-(phenylethynyl)-2-(piperazin-1-yl)benzoic acid] | 10 to 100
O=C(O)c1cccc(C#Cc2ccccc2)c1NCc1ccccc1 [Entry 108, 2-(benzylamino)-3-(phenylethynyl)benzoic acid] | 10 to 100
O=C(O)c1cccc(C#Cc2ccccc2)c1-n1cc(-c2ccccc2)nn1 [Entry 109, 2-(4-phenyl-1H-1,2,3-triazol-1-yl)-3-(2-phenylethynyl)benzoic acid] | 10 to 100
